Source: US6086880A, “Rotavirus peptide compositions and methods of use” (The University of Saskatchewan, priority 1993, dated 2000)
No end group written: not given here.

Tests used:
[1] = system: infectious virus on MA104 cells; assay: Plaque reduction by 232-255 peptide mixed with infectious virus on MA104 cells; format: cell-based; conditions: 100 pfu virus with 100 μg, 200 μg and 300 μg peptide
Experimental: In a protocol similar to a standard plaque reduction assay, MA104 cells were treated with 100 pfu of the virus in the absence of and in the presence of 100 μg, 200 μg and 300 μg of the 232-255 peptide.

BRV strain C486 = assay: Prophylactic oral 232-255 peptide in neonatal mice before challenge; format: in vivo; set-up: key to Diarrheal Score: 0: no sign of diarrhea in live mice, or on necropsy; +: no external signs of diarrhea but semi-liquid colon contents at autopsy; ++: fluid was apparent on palpation of the abdomen and the colon was filled with liquid feces and gas; +++: the external anal region was soiled with feces and intestinal fluid was present on palpation; ++++: liquid feces were present around the anal region and on palpation of the abdomen intestinal fluid was present and oozed from the anus; severe dehydration, internal liquid content in colon and caecum and distention due to accumulation of gas; conditions: for Diarrheal Score: about one hour before 10^4 pfu; for Virus Titre: mouse intestines; for Plasma D-Xylose: no challenge: 119
Experimental: The 232-255 peptide synthesized in Example 7 was diluted serially in Eagle's Minimal Essential Medium. The peptide solutions of various dilutions were administered in 100 μl dosages to neonatal mice by oral administration. The pups were born of rotavirus-free strain CD-1 dams and administration was at 7 days of age (when the pups weigh about 4 g). Approximately one hour later the mice were challenged with 10^4 pfu of BRV strain C486. Clinical protection was scored as described in Example 6. Diarrhea was scored clinically as well as on necropsy, and plasma D-xylose was determined by administering 100 μl of 5% w/v D-xylose solution, sacrificing the mice two hours later, collecting the blood and determining plasma D-xylose concentration as described above. Virus titers were determined in the mouse intestines by suspending in MEM and homogenizing for virus titration. Mice which received no challenge had plasma D-xylose levels of 119 μg/100 μl and zero viral titers.

VP6 45 kd capsid protein = assay: Binding of 232-255 peptide to VP6 of purified virus (laddering on polyacrylamide gel electrophoresis)
Excerpt: Laddering occurred both at the VP6 monomeric molecular weight of 45 kd and at the aggregate molecular weights of 90 kd and 135 kd regions. The increment in the ladder steps matched the MW of the 232-255 peptide. Trypsin treatment of the virus/peptide complex reduced the ladder to a virus profile identical with that of the trypsin-treated virus. The ladder could be detected with antisera produced against the synthetic peptide.

trypsin = assay: Trypsin susceptibility and competition with intact VP4 for trypsin; format: biochemical; conditions: for cleavage of VP4 by trypsin in presence of peptide: FIG. 8
Experimental: Susceptibility of the synthetic peptide to trypsin was confirmed by reaction with trypsin followed by electrophoresis. […] It was also established that the peptide could compete with intact VP4 for the enzyme. This was determined by measuring the ability of increasing concentrations of the synthetic peptide to reduce the amount of VP4 cleaved into the two products of molecular weight 60 kd and 28 kd.

[2] = system: Monospecific anti-glycoprotein (VP7) serum; assay: ELISA reactivity of synthetic peptides with monospecific anti-VP7 serum; format: binding; conditions: reciprocal of the dilution giving a 50% end point
Experimental: (§1) The reactivity and specificity of the synthetic peptides were determined by ELISA using either anti-VP7 monospecific VP7 serum or monoclonal antibodies specific for the various regions of VP7 and by adsorption blocking assays. […] As shown in the table, while all of the peptides were immunoreactive with the antiserum, only the peptides representing positions 247-259 and 275-295 were specifically immunoreactive with monoclonals directed to particular determinants.
(§2) ^a Antibody titers were determined by ELISA and are expressed as the
(§3) reciprocal of the dilution giving a 50% end point.

[3] = system: Monoclonal antibody 11D10-4; assay: ELISA reactivity of synthetic peptides with monoclonal antibody 11D10-4; format: binding; conditions: reciprocal of the dilution giving a 50% end point
Experimental: as §1, §2, §3

[4] = system: virus attachment to MA104 cells; assay: Adsorption blocking assay: inhibition of attachment of virus to MA104 cells; format: cell-based; conditions: FIG. 5
Experimental: as §1

[5] = system: Monoclonal antibody 10D207; assay: ELISA reactivity of synthetic peptides with monoclonal antibody 10D207; format: binding; conditions: reciprocal of the dilution giving a 50% end point
Experimental: as §1, §2, §3

[6] = system: Monoclonal antibody 11D12-6; assay: ELISA reactivity of synthetic peptides with monoclonal antibody 11D12-6; format: binding; conditions: reciprocal of the dilution giving a 50% end point
Experimental: as §1, §2, §3

[7] = system: bovine rotavirus isolate C486; assay: 50% plaque reduction assay on sera of mice immunized with KLH-conjugated VP7 peptides; format: in vivo, CD-1 mice; conditions: sera of mice given KLH-conjugated peptides; FIG. 7
Experimental: The sera obtained in Example 3 were tested for their ability to neutralize the infectivity of the bovine rotavirus isolate C486 using a standard 50% plaque reduction assay. In this assay, virus dilutions representing 30-50 PFU were mixed 1:1 with various dilutions of antibody and incubated for 1 hour at 37° C. Virus attachment to MA104 monolayers was allowed to proceed at 37° C. for 2 hours before the virus inoculum was removed; the cells were washed with MEM and then overlaid with 1.6% Bacto-agar (Difco) diluted in MEM and supple-mented with 5 μg of pancreatin per ml, 0.7% of a 1:1000 neutral red stock solution, and 0.1% DEAE-dextran. Plaques appeared after 5 to 6 days of incubation at 37° C.

[8] = system: Monoclonal antibody 4B5-5; assay: ELISA reactivity of synthetic peptides with monoclonal antibody 4B5-5; format: binding; conditions: reciprocal of the dilution giving a 50% end point
Experimental: as §1, §2, §3

For “NIAPASIVSRNIVYTRAQPNDIA [Peptide 232-255]”, the plaque reduction [1] was “capable of plaque reduction in a dose-dependent manner”, the “Diarrheal Score” value (BRV strain C486; 100 μg peptide oral) was “+++” and the “Virus Titre” value (BRV strain C486; 100 μg peptide oral) was 1.2 × 10^3 PFU/ml. The “Plasma D-Xylose” value (BRV strain C486; 100 μg peptide oral) was 92 μg/100 μl, the “Diarrheal Score” value (BRV strain C486; 250 μg peptide oral) was “++” and the “Virus Titre” value (BRV strain C486; 250 μg peptide oral) was 4.0 × 10^2 PFU/ml. For the same sequence, the “Plasma D-Xylose” value (BRV strain C486; 250 μg peptide oral) was 70 μg/100 μl, the “Diarrheal Score” value (BRV strain C486; 500 μg peptide oral) was 0 and the “Virus Titre” value (BRV strain C486; 500 μg peptide oral) was 0 PFU/ml. The “Plasma D-Xylose” value (BRV strain C486; 500 μg peptide oral) was 101 μg/100 μl, the “Diarrheal Score” value (BRV strain C486; 1000 μg peptide oral) was 0 and the “Virus Titre” value (BRV strain C486; 1000 μg peptide oral) was 0 PFU/ml. The “Plasma D-Xylose” value (BRV strain C486; 1000 μg peptide oral) was 112 μg/100 μl, the “laddering of VP6 on polyacrylamide gel electrophoresis” value (VP6 45 kd capsid protein; 25 μg peptide with 2 μg purified virus) was “laddering was not apparent” and the “laddering of VP6 on polyacrylamide gel electrophoresis” value (VP6 45 kd capsid protein; 100 μg peptide with 2 μg purified virus, 30 minutes at 37° C.) was “showed a laddering effect”. For the same sequence, the “cleavage of VP4 by trypsin in presence of peptide” value (trypsin; 25 μg (232-255)/25 μg VP4) was “complete cleavage of VP4”, the “susceptibility of the peptide to trypsin” value (trypsin; reaction with trypsin followed by electrophoresis) was “cleaved by trypsin in a dose-dependent manner” and the “cleavage of VP4 by trypsin in presence of peptide” value (trypsin; synthetic peptide increased to 200 μg) was “intact VP4 is evident”.

For RNCKKLGPRENVA [p247-259], the “Antibody titer (ELISA), monospecific anti-glycoprotein (VP7) serum with synthetic peptide” value [2] was 1,000, the “Antibody titer (ELISA), monoclonal antibody 11D10-4 with synthetic peptide” value [3] was 4,000 and the “ability to inhibit attachment of virus to MA104 cells” value [4] was “able to block virus attachment”. For the same sequence, the “Antibody titer (ELISA), monoclonal antibody 10D207 with synthetic peptide” value [5] was 20, the “Antibody titer (ELISA), monoclonal antibody 11D12-6 with synthetic peptide” value [6] was 100 and the “virus-neutralizing antibodies induced (50% plaque reduction assay)” value [7] was “induced virus-neutralizing antibodies”. The “Antibody titer (ELISA), monoclonal antibody 4B5-5 with synthetic peptide” value [8] was 5,000.

For YQQTDEANK [p174-183], the “Antibody titer (ELISA), monospecific anti-glycoprotein (VP7) serum with synthetic peptide” value [2] was 2,500, the “Antibody titer (ELISA), monoclonal antibody 11D10-4 with synthetic peptide” value [3] was 10 and the “Antibody titer (ELISA), monoclonal antibody 10D207 with synthetic peptide” value [5] was 10. The “Antibody titer (ELISA), monoclonal antibody 11D12-6 with synthetic peptide” value [6] was 10 and the “Antibody titer (ELISA), monoclonal antibody 4B5-5 with synthetic peptide” value [8] was 50.
